# Key:
# [1] = test system: SKBR3 (PI3Kα-Wild Type) cell line; test: HTRF phospho-AKT(S473) cell assay in SKBR3 cells; format: cell-based, human
# Procedure, shortened: (§1)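 Cells plated overnight (T47D in RPMI/10% FBS/0.2 units/mL insulin; SKBR3 in McCoy's 5A/10% FBS), then given 12-point 1:3 compound series (top 5 μM T47D, 10 μM SKBR3; ≤0.5% DMSO) for 2 h at 37° C. SKBR3 stimulated with 70 ng/ml PDGF-BB for final 15 min. Lysate pAKT(S473) by HTRF; IC50 calculated.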
# [2] = test system: T47D (PI3Kα-H1047R) cell line; test: HTRF phospho-AKT(S473) cell assay in T47D cells; format: cell-based, human
# Procedure, shortened: as §1
# [3] = Homo sapiens, SK-BR-3; SKBR3 (PI3Kα-Wild Type) cells, HTRF phospho-AKT(S473), 2 hours compound incubation, PDGF-BB stimulated
# [4] = Homo sapiens; T47D (PI3Kα-H1047R) cells, HTRF phospho-AKT(S473), 2 hours compound incubation
# [5] = Homo sapiens, SK-BR-3; HTRF phospho-AKT(S473), SKBR3 (PI3Kα-Wild Type) cells, 2 hours compound incubation, PDGF-BB stimulated
# [6] = Homo sapiens; HTRF phospho-AKT(S473), T47D (PI3Kα-H1047R) cells, 2 hours compound incubation
"IC50 [1, 3] [nM]","IC50 [2, 4] [nM]","IC50 [1, 5] [nM]","IC50 [2, 6] [nM]",SMILES
1000 to 5000,< 250,–,–,"Cc1cc([C@@H](C)Nc2ccc(Cl)nc2C(=O)NS(C)(=O)=O)c2nc(-c3ccc(O[C@H]4CCN(C)CC4(F)F)nc3)n(C)c(=O)c2c1 [Compound 281, 6-chloro-3-(((R)-1-(2-(6-(((S)-3,3-difluoro-1-methylpiperidin-4-yl)oxy)pyridin-3-yl)-3,6-dimethyl-4-oxo-3,4-dihydroquinazolin-8-yl)ethyl)amino)-N-(methylsulfonyl) picolinamide]"
–,–,1000 to 5000,< 250,"Cc1cc([C@@H](C)Nc2ccc(Cl)nc2C(=O)NS(C)(=O)=O)c2nc(N3CCN(c4cnccn4)CC3)n(C)c(=O)c2c1 [Compound 714, (R)-6-chloro-3-((1-(3,6-dimethyl-4-oxo-2-(4-(pyrazin-2-yl)piperazin-1-yl)-3,4-dihydroquinazolin-8-yl)ethyl)amino)-N-(methylsulfonyl) picolinamide]"
1000 to 5000,< 250,–,–,"Cc1cc([C@@H](C)Nc2ccc(Cl)nc2C(=O)NS(C)(=O)=O)c2nc(N3CCC(n4ncc5cc(C#N)ccc54)CC3)n(C)c(=O)c2c1 [Compound 255, (R)-6-chloro-3-((1-(2-(4-(5-cyano-1H-indazol-1-yl)piperidin-1-yl)-3,6-dimethyl-4-oxo-3,4-dihydroquinazolin-8-yl)ethyl)amino)-N-(methylsulfonyl) picolinamide]"
–,–,≥ 5000,500 to 1000,"Cc1cc([C@@H](C)Nc2ccc(Cl)nc2C(=O)NS(C)(=O)=O)c2nc(N3C[C@H]4C[C@@H]3CN4c3cnc(C)nc3)n(C)c(=O)c2c1 [Compound 592, 6-chloro-3-(((R)-1-(3,6-dimethyl-2-((1R,4R)-5-(2-methylpyrimidin-5-yl)-2,5-diazabicyclo [2.2.1]heptan-2-yl)-4-oxo-3,4-dihydroquinazolin-8-yl)ethyl)amino)-N-(methylsulfonyl) picolinamide]"
1000 to 5000,< 250,–,–,"Cc1cc([C@@H](C)Nc2ccc(Cl)nc2C(=O)NS(C)(=O)=O)c2nc(N3CCC[C@@H](c4cc[nH]n4)C3)n(C)c(=O)c2c1 (relative stereo) [Compound 218, 3-(((R)-1-(2-((R*)-3-(1H-pyrazol-3-yl)piperidin-1-yl)-3,6-dimethyl-4-oxo-3,4-dihydroquinazolin-8-yl)ethyl)amino)-6-chloro-N-(methylsulfonyl) picolinamide]"
–,–,1000 to 5000,250 to 500,"Cc1cc([C@@H](C)Nc2ccc(Cl)nc2C(=O)NS(C)(=O)=O)c2nc(N3CCC(c4nc(C)nn4C(F)F)CC3)n(C)c(=O)c2c1 [Compound 724, (R)-6-chloro-3-((1-(2-(4-(1-(difluoromethyl)-3-methyl-1H-1,2,4-triazol-5-yl)piperidin-1-yl)-3,6-dimethyl-4-oxo-3,4-dihydroquinazolin-8-yl)ethyl)amino)-N-(methylsulfonyl) picolinamide]"
–,–,1000 to 5000,< 250,"Cc1cc([C@@H](C)Nc2ccc(Cl)nc2C(=O)NS(C)(=O)=O)c2nc(N3CCC(c4ncc(F)cn4)CC3)n(C)c(=O)c2c1 [Compound 486, (R)-6-chloro-3-((1-(2-(4-(5-fluoropyrimidin-2-yl)piperidin-1-yl)-3,6-dimethyl-4-oxo-3,4-dihydroquinazolin-8-yl)ethyl)amino)-N-(methylsulfonyl) picolinamide]"
–,–,≥ 5000,1000 to 5000,"Cc1cc([C@@H](C)Nc2ccc(Cl)nc2C(=O)NS(C)(=O)=O)c2nc(N3CC4C[C@H]3CN4c3ccc(N(C)C)cc3)n(C)c(=O)c2c1 (stereo in doubt) [Compound 743, 6-chloro-3-(((R)-1-(2-((1S,4R)-5-(4-(dimethylamino)phenyl)-2,5-diazabicyclo [2.2.1]heptan-2-yl)-3,6-dimethyl-4-oxo-3,4-dihydroquinazolin-8-yl)ethyl)amino)-N-(methylsulfonyl) picolinamide]"
1000 to 5000,< 250,–,–,"Cc1cc([C@@H](C)Nc2ccc(Cl)nc2C(=O)NS(C)(=O)=O)c2nc(N3Cc4cn(CC(C)(C)O)nc4C3)n(C)c(=O)c2c1 [Compound 216, (R)-6-chloro-3-((1-(2-(2-(2-hydroxy-2-methylpropyl)-2,6-dihydropyrrolo[3,4-c]pyrazol-5(4H)-yl)-3,6-dimethyl-4-oxo-3,4-dihydroquinazolin-8-yl)ethyl)amino)-N-(methylsulfonyl) picolinamide]"
–,–,1000 to 5000,< 250,"CC(=O)N1CCC(c2ccc(-c3nc4c([C@@H](C)Nc5ccc(Cl)nc5C(=O)NS(C)(=O)=O)cc(C)cc4c(=O)n3C)cc2)CC1 [Compound 782, (R)-3-((1-(2-(4-(1-acetylpiperidin-4-yl)phenyl)-3,6-dimethyl-4-oxo-3,4-dihydroquinazolin-8-yl)ethyl)amino)-6-chloro-N-(methylsulfonyl) picolinamide]"
–,–,≥ 5000,250 to 500,"Cc1cc([C@@H](C)Nc2ccc(Cl)nc2C(=O)NS(C)(=O)=O)c2nc(N3C[C@@H]4[C@H](C3)[C@H]4n3cc(F)c(C)n3)n(C)c(=O)c2c1 [Compound 543, 6-chloro-3-(((R)-1-(2-((1R,5S,6S)-6-(4-fluoro-3-methyl-1H-pyrazol-1-yl)-3-azabicyclo[3.1.0]hexan-3-yl)-3,6-dimethyl-4-oxo-3,4-dihydroquinazolin-8-yl)ethyl)amino)-N-(methylsulfonyl) picolinamide]"
–,–,≥ 5000,< 250,"Cc1cc([C@@H](C)Nc2ccc(Cl)nc2C(=O)NS(C)(=O)=O)c2nc(N3C[C@@H]4[C@H](C3)[C@H]4c3ncn(C(C)C)n3)n(C)c(=O)c2c1 [Compound 551, 6-chloro-3-(((R)-1-(2-((1R,5S,6R)-6-(1-isopropyl-1H-1,2,4-triazol-3-yl)-3-azabicyclo[3.1.0]hexan-3-yl)-3,6-dimethyl-4-oxo-3,4-dihydroquinazolin-8-yl)ethyl)amino)-N-(methylsulfonyl) picolinamide]"
–,–,1000 to 5000,< 250,"Cc1cc([C@@H](C)Nc2ccc(Cl)nc2C(=O)NS(C)(=O)=O)c2nc(N3CCN(c4ccnc(C5CC5)n4)CC3)n(C)c(=O)c2c1 [Compound 590, (R)-6-chloro-3-((1-(2-(4-(2-cyclopropylpyrimidin-4-yl)piperazin-1-yl)-3,6-dimethyl-4-oxo-3,4-dihydroquinazolin-8-yl)ethyl)amino)-N-(methylsulfonyl) picolinamide]"
1000 to 5000,< 250,–,–,"Cc1cc([C@@H](C)Nc2ccc(Cl)nc2C(=O)NS(C)(=O)=O)c2nc(N3CCC(c4ccn(C)n4)CC3)n(C3CC3)c(=O)c2c1 [Compound 372, (R)-6-chloro-3-((1-(3-cyclopropyl-6-methyl-2-(4-(1-methyl-1H-pyrazol-3-yl)piperidin-1-yl)-4-oxo-3,4-dihydroquinazolin-8-yl)ethyl)amino)-N-(methylsulfonyl) picolinamide]"

SMILES,"IC50 [1, 3] [nM]","IC50 [2, 4] [nM]","IC50 [1, 5] [nM]","IC50 [2, 6] [nM]"
"Cc1cc([C@@H](C)Nc2ccc(Cl)nc2C(=O)NS(C)(=O)=O)c2nc(N3[C@@H]4CC[C@H]3C[C@@H](c3cnn(C)c3)C4)n(C)c(=O)c2c1 [Compound 297, 6-chloro-3-(((R)-1-(3,6-dimethyl-2-((1R,3R,5S)-3-(1-methyl-1H-pyrazol-4-yl)-8-azabicyclo[3.2.1]octan-8-yl)-4-oxo-3,4-dihydroquinazolin-8-yl)ethyl)amino)-N-(methylsulfonyl) picolinamide]",≥ 5000,250 to 500,–,–
